The record followed here is patent US20140315838A1, “Methods of Treating Recurring Bacterial Infection” (Optimer Pharmaceuticals, Inc., priority 2010, published 2014).

This experiment concerns Clostridium difficile. As to the kind of experiment: Phase 3 randomized, double-blind clinical trials of 10-day treatment of C. difficile infection: recurrence rate. Format: in vivo, human. The note with it: 10-day oral treatment (fidaxomicin 200 mg bid, vancomycin 125 mg qid), relapse out to 4 weeks after end of treatment. As for the experimental part: Subjects with mild to moderate C. difficile, males and females aged […] with >3 diarrheal (liquid or unformed) stools/day and with a positive enzyme immunoassay for C. difficile toxin or cell cytotoxicity assay and no more than 24 hours of prior treatment for C. difficile were eligible for enrollment. Only subjects with a primary episode or first relapse of disease were eligible. […] Subjects with ileus, WBC >30×10^9/L, toxic megacolon, or concern about life-threatening CDI were excluded from study entry. Subjects with severe underlying disease who were not expected to survive for 72 hours regardless of cause, who had had more than a single occurrence within 3 months, or who had Crohn's disease or ulcerative colitis were also excluded. […] They were evaluated for clinical cure at end of therapy and relapse out to 4 weeks following the end of treatment.

Where [1] appears, read: Stratum: Single Prior Episode of CDI (recurring CDI).

As to `CCc1c(Cl)c(O)c(Cl)c(O)c1C(=O)O[C@H]1[C@H](O)[C@H](OC)[C@H](OC/C2=C\C=C\C[C@H](O)/C(C)=C/[C@H](CC)[C@@H](O[C@@H]3OC(C)(C)[C@@H](OC(=O)C(C)C)[C@H](O)[C@@H]3O)/C(C)=C/C(C)=C/C[C@@H]([C@@H](C)O)OC2=O)O[C@@H]1C` [Fidaxomicin], the “Recurrence Rate” value was 38/325 (11.6%) (Stratum: No Prior Episode of CDI); 13/66 (19.6%) under setting [1]; 19.6% (Stratum: Single Prior Episode of CDI (recurring CDI), listed as fidaxomicin).
Take `CN[C@H](CC(C)C)C(=O)N[C@H]1C(=O)N[C@@H](CC(N)=O)C(=O)N[C@H]2C(=O)N[C@H]3C(=O)N[C@H](C(=O)N[C@H](C(=O)O)c4cc(O)cc(O)c4-c4cc3ccc4O)[C@H](O)c3ccc(c(Cl)c3)Oc3cc2cc(c3O[C@@H]2O[C@H](CO)[C@@H](O)[C@H](O)[C@H]2O[C@H]2C[C@](C)(N)[C@H](O)[C@H](C)O2)Oc2ccc(cc2Cl)[C@H]1O` [Vancomycin, reference compound]: the “Recurrence Rate” value reads like this: under setting [1], 22/62 (35.5%); (Stratum: Single Prior Episode of CDI (recurring CDI), listed as vancomycin) 35.5%.
